From US20230157952A1, “METHOD FOR IMPROVING THE STABILITY OF A PHARMACEUTICAL COMPOSITION COMPRISING A HIGH PENETRATION DRUG, AND THE PHARMACEUTICAL COMPOSITION OBTAINED THEREFROM” (Techfields Inc., priority 2020, published 2023)

Experiment: Effect of temperature (and pH) on the stability of the solution (purity)
Type: physicochemical
Details: 7% solution in water

## CCN(CC)CCOC(=O)C(C)c1ccc(-c2ccccc2)c(F)c1.Cl (racemic)
pH 1.0, day 21, 5° C.
  Purity(%) at day 21 (5° C.): 94.0 ± 0.3%
pH 1.0, day 21, 25° C.
  Purity(%) at day 21 (25° C.): 72.0 ± 0.3%
pH 1.0, day 21, 40° C.
  Purity(%) at day 21 (40° C.): 18.5 ± 0.3%
pH 1.0, day 21, 60° C.
  Purity (%) at day 21 (60° C.): 0%
pH 2.0, day 21, 25° C.
  Purity(%) at day 21 (25° C.): 86.1 ± 0.3%
pH 2.0, day 21, 40° C.
  Purity(%) at day 21 (40° C.): 30.1 ± 0.4%
pH 2.0, day 21, 60° C.
  Purity (%) at day 21 (60° C.): 0%
pH 3.0, day 21, 25° C.
  Purity(%) at day 21 (25° C.): 96.0 ± 0.2%
pH 3.0, day 21, 40° C.
  Purity(%) at day 21 (40° C.): 56.5 ± 0.3%
pH 3.0, day 21, 60° C.
  Purity (%) at day 21 (60° C.): 8.7 ± 0.3%
pH 3.7, day 21, 25° C.
  Purity(%) at day 21 (25° C.): 97.5 ± 0.1%
pH 3.7, day 21, 40° C.
  Purity(%) at day 21 (40° C.): 64.5 ± 0.3%
pH 3.7, day 21, 60° C.
  Purity (%) at day 21 (60° C.): 16.2 ± 0.3%
pH 4.0, day 21, 40° C.
  Purity(%) at day 21 (40° C.): 72.3 ± 0.3%
pH 4.0, day 21, 60° C.
  Purity (%) at day 21 (60° C.): 22.4 ± 0.3%
pH 4.3, day 21, 40° C.
  Purity(%) at day 21 (40° C.): 72.2 ± 0.3%
pH 4.3, day 21, 60° C.
  Purity (%) at day 21 (60° C.): 18.3 ± 0.2%
pH 4.6, day 21, 40° C.
  Purity(%) at day 21 (40° C.): 58.1 ± 0.4%
pH 4.6, day 21, 60° C.
  Purity (%) at day 21 (60° C.): 10.4 ± 0.3%
pH 5.0, day 21, 5° C.
  Purity(%) at day 21 (5° C.): 97.6 ± 0.2%
pH 5.0, day 21, 25° C.
  Purity(%) at day 21 (25° C.): 96.7 ± 0.2%
pH 5.0, day 21, 40° C.
  Purity(%) at day 21 (40° C.): 50.1 ± 0.3%
pH 5.0, day 21, 60° C.
  Purity (%) at day 21 (60° C.): 3.0 ± 0.3%
pH 6.0, day 21, 5° C.
  Purity(%) at day 21 (5° C.): 95.4 ± 0.2%
pH 6.0, day 21, 25° C.
  Purity(%) at day 21 (25° C.): 90.5 ± 0.3%
pH 6.0, day 21, 40° C.
  Purity(%) at day 21 (40° C.): 29.7 ± 0.4%
pH 6.0, day 21, 60° C.
  Purity (%) at day 21 (60° C.): 0%
pH 7.0, day 21, 5° C.
  Purity(%) at day 21 (5° C.): 89.7 ± 0.3%
pH 7.0, day 21, 25° C.
  Purity(%) at day 21 (25° C.): 75.1 ± 0.3%
pH 7.0, day 21, 40° C.
  Purity(%) at day 21 (40° C.): 19.8 ± 0.3%
pH 7.0, day 21, 60° C.
  Purity (%) at day 21 (60° C.): 0%
pH 8.0, day 21, 5° C.
  Purity(%) at day 21 (5° C.): 81.9 ± 0.3%
pH 8.0, day 21, 25° C.
  Purity(%) at day 21 (25° C.): 52.8 ± 0.3%
pH 8.0, day 21, 40° C.
  Purity(%) at day 21 (40° C.): 0%
pH 8.0, day 21, 60° C.
  Purity (%) at day 21 (60° C.): 0%

## CCN(CC)CCOC(=O)C(C)c1ccc2oc(-c3ccc(Cl)cc3)nc2c1.Cl (stereo not drawn)
pH 1.0, day 0
  Purity(%) at day 0: 98.1 ± 0.3%
pH 1.0, day 21, 5° C.
  Purity(%) at day 21 (5° C.): 92.9 ± 0.3%
pH 1.0, day 21, 25° C.
  Purity(%) at day 21 (25° C.): 69.2 ± 0.3%
pH 1.0, day 21, 40° C.
  Purity(%) at day 21 (40° C.): 11.3 ± 0.3%
pH 1.0, day 21, 60° C.
  Purity (%) at day 21 (60° C.): 0%
pH 2.0, day 0
  Purity(%) at day 0: 98.2 ± 0.3%
pH 2.0, day 21, 5° C.
  Purity(%) at day 21 (5° C.): 96.1 ± 0.3%
pH 2.0, day 21, 25° C.
  Purity(%) at day 21 (25° C.): 83.0 ± 0.3%
pH 2.0, day 21, 40° C.
  Purity(%) at day 21 (40° C.): 20.5 ± 0.3%
pH 2.0, day 21, 60° C.
  Purity (%) at day 21 (60° C.): 0%
pH 3.0, day 0
  Purity(%) at day 0: 98.3 ± 0.2%
pH 3.0, day 21, 5° C.
  Purity(%) at day 21 (5° C.): 97.5 ± 0.2%
pH 3.0, day 21, 25° C.
  Purity(%) at day 21 (25° C.): 94.0 ± 0.3%
pH 3.0, day 21, 40° C.
  Purity(%) at day 21 (40° C.): 45.3 ± 0.2%
pH 3.0, day 21, 60° C.
  Purity (%) at day 21 (60° C.): 0%
pH 3.7, day 0
  Purity(%) at day 0: 98.5 ± 0.1%
pH 3.7, day 21, 5° C.
  Purity(%) at day 21 (5° C.): 97.6 ± 0.2%
pH 3.7, day 21, 25° C.
  Purity(%) at day 21 (25° C.): 96.6 ± 0.2%
pH 3.7, day 21, 40° C.
  Purity(%) at day 21 (40° C.): 51.9 ± 0.2%
pH 3.7, day 21, 60° C.
  Purity (%) at day 21 (60° C.): 11.3 ± 0.3%
pH 4.0, day 0
  Purity(%) at day 0: 98.6 ± 0.1%
pH 4.0, day 21, 5° C.
  Purity(%) at day 21 (5° C.): 98.0 ± 0.1%
pH 4.0, day 21, 25° C.
  Purity(%) at day 21 (25° C.): 96.7 ± 0.2%
pH 4.0, day 21, 40° C.
  Purity(%) at day 21 (40° C.): 62.7 ± 0.2%
pH 4.0, day 21, 60° C.
  Purity (%) at day 21 (60° C.): 18.6 ± 0.2%
pH 4.3, day 0
  Purity(%) at day 0: 98.6 ± 0.1%
pH 4.3, day 21, 5° C.
  Purity(%) at day 21 (5° C.): 98.0 ± 0.1%
pH 4.3, day 21, 25° C.
  Purity(%) at day 21 (25° C.): 96.7 ± 0.1%
pH 4.3, day 21, 40° C.
  Purity(%) at day 21 (40° C.): 63.1 ± 0.2%
pH 4.3, day 21, 60° C.
  Purity (%) at day 21 (60° C.): 17.7 ± 0.2%
pH 4.6, day 0
  Purity(%) at day 0: 98.6 ± 0.1%
pH 4.6, day 21, 5° C.
  Purity(%) at day 21 (5° C.): 98.0 ± 0.1%
pH 4.6, day 21, 25° C.
  Purity(%) at day 21 (25° C.): 96.6 ± 0.1%
pH 4.6, day 21, 40° C.
  Purity(%) at day 21 (40° C.): 50.3 ± 0.2%
pH 4.6, day 21, 60° C.
  Purity (%) at day 21 (60° C.): 12.3 ± 0.2%
pH 5.0, day 0
  Purity(%) at day 0: 98.4 ± 0.2%
pH 5.0, day 21, 5° C.
  Purity(%) at day 21 (5° C.): 97.1 ± 0.2%
pH 5.0, day 21, 25° C.
  Purity(%) at day 21 (25° C.): 92.9 ± 0.2%
pH 5.0, day 21, 40° C.
  Purity(%) at day 21 (40° C.): 39.8 ± 0.2%
pH 5.0, day 21, 60° C.
  Purity (%) at day 21 (60° C.): 2.9 ± 0.2%
pH 6.0, day 0
  Purity(%) at day 0: 98.2 ± 0.2%
pH 6.0, day 21, 5° C.
  Purity(%) at day 21 (5° C.): 94.8 ± 0.2%
pH 6.0, day 21, 25° C.
  Purity(%) at day 21 (25° C.): 86.8 ± 0.2%
pH 6.0, day 21, 40° C.
  Purity(%) at day 21 (40° C.): 20.6 ± 0.3%
pH 6.0, day 21, 60° C.
  Purity (%) at day 21 (60° C.): 0%
pH 7.0, day 0
  Purity(%) at day 0: 98.0 ± 0.2%
pH 7.0, day 21, 5° C.
  Purity(%) at day 21 (5° C.): 89.1 ± 0.3%
pH 7.0, day 21, 25° C.
  Purity(%) at day 21 (25° C.): 60.9 ± 0.2%
pH 7.0, day 21, 40° C.
  Purity(%) at day 21 (40° C.): 7.4 ± 0.3%
pH 7.0, day 21, 60° C.
  Purity (%) at day 21 (60° C.): 0%
pH 8.0, day 0
  Purity(%) at day 0: 97.7 ± 0.3%
pH 8.0, day 21, 5° C.
  Purity(%) at day 21 (5° C.): 78.7 ± 0.3%
pH 8.0, day 21, 25° C.
  Purity(%) at day 21 (25° C.): 47.9 ± 0.3%
pH 8.0, day 21, 40° C.
  Purity(%) at day 21 (40° C.): 0%
pH 8.0, day 21, 60° C.
  Purity (%) at day 21 (60° C.): 0%
